Active and inactive are the calls of the source. No cut-off for these calls is given here.
Legend:
Ca-Ski [1] = assay: Induction of apoptosis in human Ca Ski cells assessed as late apoptotic cells at 1 uM incubated for 24 hrs by Annexin V-FITC/PI staining based flow cytometric analysis (reference value: 5.33 %); type: functional
SiHa [2] = assay: Induction of morphological changes in human SiHa cells assessed as increase in inflated cell appearance at 0.5 to 2 uM by microphotographic analysis; type: functional, cell-based; settings: dose 0.5-2 µM
Ca-Ski [3] = assay: Effect on cleaved PARP expression level in p53 deficient human Ca Ski cells at 0.5 to 1 uM incubated for 24 hrs by Western blot analysis; type: functional, cell-based; settings: dose 0.5-1 µM
A549 = assay: Antiproliferative activity against human A549 cells assessed as reduction in cell optical density incubated for 48 hrs by MTT assay; type: functional, cell-based; settings: A549, 48 h
Ca-Ski [4] = assay: Inhibition of colony formation in human Ca Ski cells assessed as reduction in colony forming unit count at 0.1 to 0.4 uM incubated for 24 hrs by crystal violet staining based analysis; type: functional, cell-based; settings: dose 0.1-0.4 µM
HeLa [5] = assay: Induction of apoptosis in human HeLa cells assessed as viable cells at 1.2 uM incubated for 24 hrs by Annexin V-FITC/PI staining based flow cytometric analysis (reference value: 96.2 %); type: functional; settings: read-out: Activity
SiHa [6] = assay: Induction of morphological changes in human SiHa cells assessed as decrease in cell adherence to culture dish at 0.5 to 2 uM by microphotographic analysis; type: functional, cell-based; settings: dose 0.5-2 µM
BGC-823 = assay: Antiproliferative activity against human BGC-823 cells assessed as reduction in cell optical density incubated for 48 hrs by MTT assay; type: functional, cell-based; settings: BGC-823, 48 h
Ca-Ski [7] = assay: Effect on cleaved PARP expression level in human Ca Ski cells at 0.25 to 1 uM incubated for 24 hrs by Western blot analysis; type: functional, cell-based; settings: dose 0.25-1 µM
HeLa [8] = assay: Antitumor activity against human HeLa cells xenografted in female BALB/c mouse assessed as reduction in tumor weight at 8 mg/kg administered every four days and measured after 26 days relative to control; type: functional; set-up: scale not given: the % may be the effect or the level left; settings: time 26 day
HeLa [9] = assay: Induction of autophagy in ATG7 deficient human HeLa cells assessed as increase in LC3-II expression at 0.6 to 1.2 uM incubated for 24 hrs by Western blot analysis; type: functional, cell-based; settings: dose 0.6-1.2 µM
Ca-Ski [10] = assay: Effect on GPX4 protein expression level in human Ca Ski cells at 0.5 uM incubated for 24 hrs by Western blot analysis; type: functional, cell-based
Ca-Ski [11] = assay: Induction of apoptosis in human Ca Ski cells assessed as viable cells at 0.5 uM incubated for 24 hrs by Annexin V-FITC/PI staining based flow cytometric analysis (reference value: 86.8 %); type: functional; settings: read-out: Activity
HeLa [12] = assay: Effect on cleaved PARP expression level in p53 deficient human HeLa cells at 0.6 to 1.2 uM incubated for 24 hrs by Western blot analysis; type: functional, cell-based; settings: dose 0.6-1.2 µM
HeLa [13] = assay: Effect on ACSL4 protein expression level in human HeLa cells at 0.6 uM incubated for 24 hrs by Western blot analysis; type: functional, cell-based
C-33-A = assay: Antiproliferative activity against human C-33-A cells assessed as inhibition of cell viability incubated for 24 hrs by CCK8 assay; type: functional, cell-based
Ca-Ski [14] = assay: Effect on cleaved PARP expression level in Bax deficient human Ca Ski cells at 0.5 to 1 uM incubated for 24 hrs by Western blot analysis; type: functional, cell-based; settings: dose 0.5-1 µM
Ca-Ski [15] = assay: Induction of autophagy in human Ca Ski cells transfected with mRFP-GFP-LC3 plasmid assessed as appearance of RFP puncta clusters as aggregates in cytoplasm at 25 uM incubated for 24 hrs by DAPI staining based fluorescence confocal microscopic analysis; type: functional, cell-based
Ca-Ski [16] = assay: Inhibition of colony formation in ATG5 deficient human Ca Ski cells at 0.1 to 0.4 uM incubated for 24 hrs by crystal violet staining based analysis; type: functional, cell-based; settings: dose 0.1-0.4 µM
Ca-Ski [17] = assay: Effect on TRFC protein expression level in human Ca Ski cells at 0.5 uM incubated for 24 hrs by Western blot analysis; type: functional, cell-based
Ca-Ski [18] = assay: Effect on cleaved caspase 3 expression level in human Ca Ski cells at 0.25 to 1 uM incubated for 24 hrs by Western blot analysis; type: functional, cell-based; settings: dose 0.25-1 µM
Ca-Ski [19] = assay: Induction of apoptosis in human Ca Ski cells assessed as late apoptotic cells at 0.5 uM incubated for 24 hrs by Annexin V-FITC/PI staining based flow cytometric analysis (reference value: 5.33 %); type: functional
HeLa [20] = assay: Induction of autophagy in human HeLa cells assessed as increase in ATG7 protein level at 0.6 to 1.2 uM incubated for 24 hrs by Western blot analysis; type: functional, cell-based; settings: dose 0.6-1.2 µM
Ca-Ski [21] = assay: Inhibition of colony formation in ATG7 deficient human Ca Ski cells at 0.1 to 0.4 uM incubated for 24 hrs by crystal violet staining based analysis; type: functional, cell-based; settings: dose 0.1-0.4 µM
HeLa [22] = assay: Induction of autophagy in human HeLa cells transfected with mRFP-GFP-LC3 plasmid assessed as decrease in GFP fluorescence at 0.4 to 0.8 uM incubated for 24 hrs by DAPI staining based fluorescence confocal microscopic analysis; type: functional, cell-based; settings: dose 0.4-0.8 µM
HeLa [23] = assay: Induction of morphological changes in human HeLa cells assessed as increase in appearance of round cells at 0.6 to 2.4 uM by microphotographic analysis; type: functional, cell-based; settings: dose 0.6-2.4 µM
HepG2 = assay: Antiproliferative activity against human HepG2 cells assessed as reduction in cell optical density incubated for 48 hrs by MTT assay; type: functional, cell-based; settings: HepG2, 48 h
HeLa [24] = assay: Effect on TRFC protein expression level in human HeLa cells at 0.6 uM incubated for 24 hrs by Western blot analysis; type: functional, cell-based
SiHa [25] = assay: Inhibition of colony formation in human SiHa cells assessed as reduction in colony forming unit count at 0.1 to 0.4 uM incubated for 24 hrs by crystal violet staining based analysis; type: functional, cell-based; settings: dose 0.1-0.4 µM
HeLa [26] = assay: Induction of apoptosis in human HeLa cells assessed as viable cells at 0.6 uM incubated for 24 hrs by Annexin V-FITC/PI staining based flow cytometric analysis (reference value: 96.2 %); type: functional; settings: read-out: Activity
MCF7 = assay: Antiproliferative activity against human MCF7 cells assessed as reduction in cell optical density incubated for 48 hrs by MTT assay; type: functional, cell-based; settings: MCF7, 48 h
Ca-Ski [27] = assay: Induction of apoptosis in human Ca Ski cells assessed as viable cells at 1 uM incubated for 24 hrs by Annexin V-FITC/PI staining based flow cytometric analysis (reference value: 86.8 %); type: functional; settings: read-out: Activity
HeLa [28] = assay: Induction of apoptosis in human HeLa cells assessed as necrotic cells at 1.2 uM preincubated with Z-VAD-FMK for 1 hrs followed by compound addition and measured after 24 hrs by Annexin V-FITC/PI staining based flow cytometric analysis (reference value: 2.16 %); type: functional
Ca-Ski [29] = assay: Induction of apoptosis in human Ca Ski cells assessed as early apoptotic cells at 0.5 uM incubated for 24 hrs by Annexin V-FITC/PI staining based flow cytometric analysis (reference value: 4.76 %); type: functional
HeLa [30] = assay: Antiproliferative activity against ATG7 deficient human HeLa cells assessed as inhibition of cell viability incubated for 24 hrs by CCK8 assay; type: functional, cell-based
HeLa [31] = assay: Effect on Beclin1 protein level in human HeLa cells at 0.6 to 1.2 uM incubated for 24 hrs by Western blot analysis; type: functional, cell-based; settings: dose 0.6-1.2 µM

SMILES: COc1cccc(Nc2ccnc3cc(OCCCCCOc4ccc5c(Nc6cccc(OC)c6)ccnc5c4)ccc23)c1
- Activity (Ca-Ski [1]): 7.8%
- Activity (SiHa [2]): Active
- Activity (Ca-Ski [3]): inactive
- IC50 (A549): 2750 nM
- inhibition (Ca-Ski [4]): Active
- viability at 1.2 µM (HeLa [5]): 93.2%
- Activity (SiHa [6]): Active
- IC50 (BGC-823): 4060 nM
- Activity (Ca-Ski [7]): inactive
- Activity (HeLa [8]): 81.76%
- Activity (HeLa [9]): inactive
- Activity (Ca-Ski [10]): Moderate_effect
- viability at 0.5 µM (Ca-Ski [11]): 85.5%
- Activity (HeLa [12]): inactive
- Activity (HeLa [13]): Moderate_effect
- Activity (C-33-A): Dose-dependent-effect
- IC50 (C-33-A): 807 nM
- Activity (Ca-Ski [14]): inactive
- Activity (Ca-Ski [15]): Active
- inhibition (Ca-Ski [16]): Minimal_effect
- Activity (Ca-Ski [17]): inactive
- Activity (Ca-Ski [18]): inactive
- Activity (Ca-Ski [19]): 5.88%
- Activity (HeLa [20]): Active
- inhibition (Ca-Ski [21]): Minimal_effect
- Activity (HeLa [22]): Active
- Activity (HeLa [23]): Active
- IC50 (HepG2): 31500 nM
- Activity (HeLa [24]): inactive
- inhibition (SiHa [25]): Active
- viability at 0.6 µM (HeLa [26]): 94.3%
- IC50 (MCF7): 3080 nM
- viability at 1 µM (Ca-Ski [27]): 82%
- Activity (HeLa [28]): 1.49%
- Activity (Ca-Ski [29]): 8.01%
- IC50 (HeLa [30]): 2310 nM
- Activity (HeLa [31]): inactive

Source: ChEMBL document CHEMBL6115007, “Synthesis and in vitro and in vivo evaluation of novel bivalent quinolines as antitumor agents via targeting autophagy in cervical cancer” (Eur J Med Chem, 2025)
